# Source: ChEMBL document CHEMBL1201862, “PubChem BioAssay data set” (2004)
#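 48-hour exposure; five concentrations; linearly interpolated endpoints. GI50 marks 50% less growth.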 Active and inactive are the calls of the source. Cut-off read from the data, not from the text of the source: active = GI50 up to about 1.1 µM and inactive = higher.
# Tests used:
# Assay in all cases: inhibition of tumour cell growth, NCI panel, 48 h
# HL-60 = system: HL-60
# Malme-3M = system: Malme-3M
# KM12 = system: KM12
# NCI/ADR-RES = system: NCI/ADR-RES
# A549 = system: A549
# SNB-19 = system: SNB-19
# HOP-92 = system: HOP-92
# 786-0 = system: 786-0
# NCI-H522 = system: NCI-H522
# U-251 = system: U-251
# LOX IMVI = system: LOX IMVI
# SNB-75 = system: SNB-75
# UO-31 = system: UO-31
# OVCAR-4 = system: OVCAR-4
# RXF 393 = system: RXF 393
# SF-539 = system: SF-539
# M14 = system: M14
# OVCAR-3 = system: OVCAR-3
# SF-295 = system: SF-295
SMILES,GI50 (HL-60),GI50 (Malme-3M),GI50 (KM12),GI50 (NCI/ADR-RES),GI50 (A549),GI50 (SNB-19),GI50 (HOP-92),GI50 (786-0),GI50 (NCI-H522),GI50 (U-251),GI50 (LOX IMVI),GI50 (SNB-75),GI50 (UO-31),GI50 (OVCAR-4),GI50 (RXF 393),GI50 (SF-539),GI50 (M14),GI50 (OVCAR-3),GI50 (SF-295)
O=C(NCCCN(CCCCN(CCCNC(=O)c1cc(S(=O)(=O)O)cc(O)c1O)C(=O)c1cc(S(=O)(=O)O)cc(O)c1O)C(=O)c1cc(S(=O)(=O)O)cc(O)c1O)c1cc(S(=O)(=O)O)cc(O)c1O,66.1 µM (inactive),> 100 µM (inactive),> 100 µM (inactive),> 100 µM (inactive),> 100 µM (inactive),> 100 µM (inactive),> 100 µM (inactive),> 100 µM (inactive),> 100 µM (inactive),> 100 µM (inactive),98.4 µM (inactive),> 100 µM (inactive),> 100 µM (inactive),> 100 µM (inactive),,,,,
Cn1c(=O)c2nc(CS(=O)(=O)Cc3nc4c(=O)n(C)c(=O)n(C)c4[nH]3)[nH]c2n(C)c1=O,> 100 µM (inactive),> 100 µM (inactive),> 100 µM (inactive),> 100 µM (inactive),> 100 µM (inactive),> 100 µM (inactive),,> 100 µM (inactive),> 100 µM (inactive),33.2 µM (inactive),> 100 µM (inactive),> 100 µM (inactive),> 100 µM (inactive),43.1 µM (inactive),> 100 µM (inactive),> 100 µM (inactive),> 100 µM (inactive),> 100 µM (inactive),> 100 µM (inactive)
CCOC(=O)CCC(NC(=O)c1ccc(CNc2nc3ccccc3nc2C(=O)OCC)cc1)C(=O)OCC (centres undefined),,77.3 µM (inactive),> 100 µM (inactive),> 100 µM (inactive),> 100 µM (inactive),23.7 µM (inactive),> 100 µM (inactive),> 100 µM (inactive),> 100 µM (inactive),21.8 µM (inactive),> 100 µM (inactive),> 100 µM (inactive),44.1 µM (inactive),,,,> 100 µM (inactive),78.7 µM (inactive),> 100 µM (inactive)
Cc1ccc(-c2cc(N)n(-c3nc4c(c(=O)n(C)c(=O)n4C)n3C)n2)cc1,> 100 µM (inactive),45.6 µM (inactive),> 100 µM (inactive),95.1 µM (inactive),> 100 µM (inactive),94.4 µM (inactive),> 100 µM (inactive),42.2 µM (inactive),86.5 µM (inactive),> 100 µM (inactive),,,> 100 µM (inactive),42.5 µM (inactive),> 100 µM (inactive),45.8 µM (inactive),> 100 µM (inactive),> 100 µM (inactive),62.7 µM (inactive)
O=C(c1ccccc1)c1cc(-c2ccccc2)c(-c2ccccc2)[nH]c(=O)c1=O,15.7 µM (inactive),49.3 µM (inactive),35.8 µM (inactive),33.7 µM (inactive),41.7 µM (inactive),64.6 µM (inactive),41.1 µM (inactive),> 100 µM (inactive),22.1 µM (inactive),37.8 µM (inactive),34.5 µM (inactive),,35.8 µM (inactive),33.7 µM (inactive),,31.3 µM (inactive),41.2 µM (inactive),35.6 µM (inactive),40.7 µM (inactive)
Cc1ccc2c(c1)C(=O)c1[nH]c3ccc(F)cc3c1CO2,> 100 µM (inactive),26.3 µM (inactive),> 100 µM (inactive),58.5 µM (inactive),62.2 µM (inactive),14.3 µM (inactive),81.8 µM (inactive),12.1 µM (inactive),36.6 µM (inactive),18.5 µM (inactive),21.5 µM (inactive),10.3 µM (inactive),> 100 µM (inactive),15.3 µM (inactive),,13.9 µM (inactive),18.8 µM (inactive),36.6 µM (inactive),11.4 µM (inactive)
COc1ccc(C2=NN=C3C(c4ccccc4)=Nc4ccccc4N3C2)cc1,7.55 µM (inactive),25.2 µM (inactive),21.4 µM (inactive),10.8 µM (inactive),35.7 µM (inactive),23.8 µM (inactive),85.9 µM (inactive),10.6 µM (inactive),,14.5 µM (inactive),16.9 µM (inactive),,6.46 µM (inactive),6.49 µM (inactive),10.9 µM (inactive),28.1 µM (inactive),15.5 µM (inactive),3.06 µM (inactive),
Cc1cc(=O)c2cc(/N=C/c3ccc([N+](=O)[O-])o3)ccc2o1,57.9 µM (inactive),30 µM (inactive),> 100 µM (inactive),> 100 µM (inactive),> 100 µM (inactive),> 100 µM (inactive),> 100 µM (inactive),64.4 µM (inactive),64.6 µM (inactive),> 100 µM (inactive),42.7 µM (inactive),> 100 µM (inactive),> 100 µM (inactive),> 100 µM (inactive),,> 100 µM (inactive),> 100 µM (inactive),> 100 µM (inactive),> 100 µM (inactive)
CC(C)[C@@H](C)[C@@]1(C)C[C@@H]1[C@@H](C)[C@H]1CC[C@@H]([C@@H]2CC=C3C[C@@H](O)CC[C@]3(C)C2=O)[C@]1(C)CCO,2.11 µM (inactive),14 µM (inactive),2.82 µM (inactive),13.4 µM (inactive),,12.6 µM (inactive),,5.53 µM (inactive),6.9 µM (inactive),11 µM (inactive),4.57 µM (inactive),5.66 µM (inactive),15.2 µM (inactive),12.1 µM (inactive),3.3 µM (inactive),12.6 µM (inactive),,12.8 µM (inactive),9.2 µM (inactive)
O=C(O)c1ccccc1/C=N\N=C1NCCN1,> 100 µM (inactive),> 100 µM (inactive),> 100 µM (inactive),> 100 µM (inactive),> 100 µM (inactive),> 100 µM (inactive),> 100 µM (inactive),> 100 µM (inactive),> 100 µM (inactive),> 100 µM (inactive),> 100 µM (inactive),> 100 µM (inactive),40.9 µM (inactive),> 100 µM (inactive),,> 100 µM (inactive),> 100 µM (inactive),> 100 µM (inactive),> 100 µM (inactive)
CCOc1cc2c(cc1O)CC[C@@H]1[C@@H]2CC[C@]2(C)C(OS(=O)OC3CC[C@@H]4[C@H]5CCc6cc(O)c(OCC)cc6[C@@H]5CC[C@@]34C)CC[C@@H]12 (some centres undefined),0.173 µM (active),0.168 µM (active),4.59 µM (inactive),0.441 µM (active),0.689 µM (active),2.64 µM (inactive),0.363 µM (active),0.583 µM (active),,0.33 µM (active),0.752 µM (active),0.51 µM (active),5.48 µM (inactive),9.2 µM (inactive),1.29 µM (inactive),0.48 µM (active),0.592 µM (active),0.313 µM (active),0.982 µM (active)
Cc1cc2c(cc1Cl)SC(NNC(=O)c1ccncc1)=NS2(=O)=O,> 10 µM (inactive),> 10 µM (inactive),> 10 µM (inactive),> 10 µM (inactive),> 10 µM (inactive),> 10 µM (inactive),,> 10 µM (inactive),> 10 µM (inactive),> 10 µM (inactive),> 10 µM (inactive),> 10 µM (inactive),,> 10 µM (inactive),> 10 µM (inactive),> 10 µM (inactive),> 10 µM (inactive),> 10 µM (inactive),> 10 µM (inactive)
COc1ccc2[nH]c3c(c2c1)CC(=S)N1CCCC(CC3=O)C1 (centres undefined),,43.3 µM (inactive),25.4 µM (inactive),63.5 µM (inactive),32.4 µM (inactive),35.6 µM (inactive),> 100 µM (inactive),58.2 µM (inactive),,33.3 µM (inactive),,52.4 µM (inactive),63.8 µM (inactive),58.3 µM (inactive),20.7 µM (inactive),,45.9 µM (inactive),45.8 µM (inactive),39.7 µM (inactive)
CCCCC(=O)Nc1ccc2c(C)cc(-c3ccc(-c4cc(-c5ccc(C)cc5)cc(-c5ccc(-c6cc(C)c7ccc(NC(=O)CCCC)nc7n6)cc5)n4)cc3)nc2n1,,> 100 µM (inactive),> 100 µM (inactive),> 100 µM (inactive),> 100 µM (inactive),> 100 µM (inactive),78.9 µM (inactive),> 100 µM (inactive),> 100 µM (inactive),> 100 µM (inactive),,> 100 µM (inactive),> 100 µM (inactive),> 100 µM (inactive),,,> 100 µM (inactive),> 100 µM (inactive),> 100 µM (inactive)
CC12CCC(CC1(Cl)Cl)C2 (centres undefined),> 100 µM (inactive),> 100 µM (inactive),> 100 µM (inactive),> 100 µM (inactive),> 100 µM (inactive),> 100 µM (inactive),> 100 µM (inactive),> 100 µM (inactive),> 100 µM (inactive),> 100 µM (inactive),> 100 µM (inactive),> 100 µM (inactive),> 100 µM (inactive),> 100 µM (inactive),,,> 100 µM (inactive),> 100 µM (inactive),> 100 µM (inactive)
CN/C(=N\n1cnnc1)OC,,> 100 µM (inactive),> 100 µM (inactive),> 100 µM (inactive),> 100 µM (inactive),> 100 µM (inactive),> 100 µM (inactive),> 100 µM (inactive),> 100 µM (inactive),> 100 µM (inactive),,,> 100 µM (inactive),> 100 µM (inactive),> 100 µM (inactive),,> 100 µM (inactive),> 100 µM (inactive),> 100 µM (inactive)
